Source: patent US20260215425A1, “NITRIFICATION INHIBITORS” (The University of Melbourne, priority 2022, published 2026)

What was measured:
[1] = target: T1, hydroxylamine oxireductase (HOA) (Nitrosomonas europaea, UniProt Q50925); test: standard nitrification inhibition assay with NH2OH as substrate; type: cell-based, N. europaea; conditions: substrate NH2OH 3 mM, [inhibitor]=0.3 mM, pH 7.5, 30° C., 60 min; read-out: % Inhibition NE
T1 construct: N. europaea and N. multiformis contain naturally both enzymes; endogenous in cells; host or cells: N. europaea pure culture (whole cells in NaPB)
T1 sequence (Q50925 25-570): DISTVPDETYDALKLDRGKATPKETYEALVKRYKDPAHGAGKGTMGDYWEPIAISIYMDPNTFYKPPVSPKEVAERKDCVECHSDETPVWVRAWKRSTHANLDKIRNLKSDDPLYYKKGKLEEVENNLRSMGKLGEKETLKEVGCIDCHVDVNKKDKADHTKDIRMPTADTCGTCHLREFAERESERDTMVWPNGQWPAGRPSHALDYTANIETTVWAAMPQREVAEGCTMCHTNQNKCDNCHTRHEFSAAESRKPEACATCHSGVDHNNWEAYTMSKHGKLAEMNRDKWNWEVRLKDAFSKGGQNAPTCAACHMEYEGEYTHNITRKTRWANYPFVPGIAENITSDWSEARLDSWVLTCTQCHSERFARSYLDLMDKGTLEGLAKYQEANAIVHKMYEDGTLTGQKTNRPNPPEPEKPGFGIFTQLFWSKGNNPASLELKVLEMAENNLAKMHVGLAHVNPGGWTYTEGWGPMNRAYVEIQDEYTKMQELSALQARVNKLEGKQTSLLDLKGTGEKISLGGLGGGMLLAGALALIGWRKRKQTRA

[2] = test system: hydroxylamine oxireductase (HOA); test: as above; type: cell-based, N. multiformis; conditions: substrate NH2OH 3 mM, [inhibitor]=0.3 mM, pH 7.5, 30° C., 60 min
soil A = test: soil incubation, NH4+ and NO3- in soil A; conditions: 21 days
Procedure: Soils used in these studies were air-dried, ground and sieved (2 mm) prior to use. Soil microcosm incubations were carried out in 250 mL polypropylene specimen containers (Sarstedt, Germany), containing 20 g oven dry-weight equivalent of soil. Microcosms were treated with half the volume of water required to meet the desired water-filled pore space (WFPS %) of 60% and pre-incubated at 25° C. for seven days to revive soil microbial activity. Following pre-incubation, the remaining volume to reach the WFPS % was applied as one of the treatment solutions: (1) fertiliser ((NH4)2SO4,) 100 mg kg^−1, (2) fertiliser+0.5 mol % 4-MPT, (3) fertiliser+2.5 mol % 4-MPT, (4) fertiliser+5 mol % 4-MPT or (5) fertiliser+5 mol % compound 1, with three replicates of each treatment per time interval (n=3). Throughout the incubation period soil microcosms were kept aerated by removing the lid for 10 minutes every 2-3 days to allow gas exchange, and moisture levels were replenished via addition of Milli-Q water as required. At the end of the desired incubation period (i.e., after 0, 3, 7, 14, and 21 days, respectively), soil microcosms were removed and destructively sampled by treating with 2 M aqueous potassium chloride solution (KCl, 100 mL) and shaking for 1 h. Soil-KCl solutions were filtered (Whatman No. 42), and the filtrates were stored at −20° C. until the conclusion of the experiment, when all KCl extracts were analysed for the concentration of soil mineral nitrogen from ammonium (NH4^+—N) and from nitrate (NO3^−—N; the conversion of NO2 to NO3^− in soils is very rapid) after appropriate dilutions using Segmented Flow Analysis (San++, Skalar, Breda, The Netherlands). Results are reported as the mean of three replicates, errors reported are standard errors of the mean. Errors associated with raw data were carried through calculations using standard error propagation protocols.
To determine the nitrification inhibitory effect of 4-MPT in vivo, soil incubations were performed by measuring concentration-time profiles for NH4^+ and NO3^− in an acidic Australian soil (soil A, pH=5.9) over 21 days. 4-MPT was tested at three different concentrations (0.5 mol %, 2.5 mol % and 5 mol % of applied fertiliser-N) and compared with the alkyl-substituted compound 1 (5 mol % of applied fertiliser-N) to confirm the requirement of the N-propargyl substitutent for inhibitory activity (FIG. 5).

N. europaea = test: acute toxicity test (LIVE/DEAD stain); type: cell-based; conditions: [4-MPT]=1.5 mM (50 mol % of [NH4+]), [NH4+]=3 mM, 12 h
Procedure: Cells were harvested using the ‘standard cell harvesting protocol’. The bacteria solution was adjusted to an OD600=0.8 (100 μg/L protein). The solution was divided into 1 mL aliquots and transferred to a 24-well tissue culture plate (Greiner Cellstar®, polystyrene Tissue Culture treated). Each well contained 980 μL of bacterial solution, 10 μL of a 150 mM aqueous (NH4)2SO4 solution and 10 μL of a 150 mM inhibitor solution. […] After incubation, cells were transferred into a centrifuge tube and sedimented at 10,000 rpm for 10 minutes. The supernatant was discarded, and cells were re-suspended in 1 mL NaPB. A 5 μL aliquot was transferred into a 96-well plate and the bacterial stain (LIVE/DEAD™ BacLight™ Bacterial Viability Kit for microscopy, ThermoFisher Scientific) was added following the manufacturer's guideline. 10 μL of the solution was transferred onto a microscopic slide (Fisher Scientific, Australia, microscope slides 7.6 cm×2.5 cm (L×W), thickness 1-1.2 mm). Ten images were taken per treatment with a fluorescence microscope (Leica DM6000, Germany) using the red filter setting (excitation:
575/30 nm (dichromatic) DC: 600; emission: 635/40 nm) and green channel using filter setting (excitation: 500/20 nm DC: 515; emission: 535/30 nm) to detect dead and live cells respectively. The percentage of live and dead cells was calculated via eqns.

C#CCn1cc(C)nn1 [Compound 4-MPT, 4-Methyl-1-(prop-2-yn-1yl)-1H-1,2,3-triazole]
inhibition at 300 µM [1]: 28 ± 3% | % Inhibition NM [2]: 33 ± 4% | NH4+ loss / conversion in soil (soil A; 0.5 mol % of applied fertiliser-N): noticeably delayed NH4^+ loss within the first 15 days | NH4+ loss / conversion in soil (soil A; 2.5 mol % of applied fertiliser-N): quantitatively suppress NH4^+ conversion | NH4+ loss / conversion in soil (soil A; 5 mol % of applied fertiliser-N): quantitatively suppress NH4^+ conversion | % Dead (N. europaea): 25 ± 8% | % Live (N. europaea): 75 ± 8%
